Results from patent US9580449B2, “Compositions and methods for the production of pyrimidine and pyridine compounds with BTK inhibitory activity” (Merck Patent GmbH, priority 2011, dated 2017).

Target: full-length human BTK (Homo sapiens (Human), UniProt Q06187)
Assay: BTK IC50 enzyme assay (microfluidic off-chip mobility shift kinase assay)
Type: biochemical
Conditions: incubated for 90 min. at 27 C; read-out: Time Dependent BTK Enzyme Assay IC50
Protocol: The following describes a microfluidic, off-chip mobility shift kinase assay used to measure inherent potency of compounds against BTK enzyme. Compounds described by embodiments of the present invention were assayed using this protocol and the data from the same is recorded in Table 2 within the column labeled: “Time Dependent BTK Enzyme Assay IC50”.
Stopped reactions were monitored at −2 PSI, −3000 V/−700 V in a LabChip 3000 plate reader from Caliper Life Sciences, a PerkinElmer Company (Hopkinton, Mass.), and the activity was measured by off-chip mobility shift assay measuring the charge/mass difference between substrate and product resulting from peptide phosphorylation. IC50 and efficacy were determined by plotting log [Inhibitor] vs. % Activity in GeneData Screener (Basel, Switzerland). […] I<1 uM and II>1 uM.

Sequence of full-length human BTK (Q06187 whole entry): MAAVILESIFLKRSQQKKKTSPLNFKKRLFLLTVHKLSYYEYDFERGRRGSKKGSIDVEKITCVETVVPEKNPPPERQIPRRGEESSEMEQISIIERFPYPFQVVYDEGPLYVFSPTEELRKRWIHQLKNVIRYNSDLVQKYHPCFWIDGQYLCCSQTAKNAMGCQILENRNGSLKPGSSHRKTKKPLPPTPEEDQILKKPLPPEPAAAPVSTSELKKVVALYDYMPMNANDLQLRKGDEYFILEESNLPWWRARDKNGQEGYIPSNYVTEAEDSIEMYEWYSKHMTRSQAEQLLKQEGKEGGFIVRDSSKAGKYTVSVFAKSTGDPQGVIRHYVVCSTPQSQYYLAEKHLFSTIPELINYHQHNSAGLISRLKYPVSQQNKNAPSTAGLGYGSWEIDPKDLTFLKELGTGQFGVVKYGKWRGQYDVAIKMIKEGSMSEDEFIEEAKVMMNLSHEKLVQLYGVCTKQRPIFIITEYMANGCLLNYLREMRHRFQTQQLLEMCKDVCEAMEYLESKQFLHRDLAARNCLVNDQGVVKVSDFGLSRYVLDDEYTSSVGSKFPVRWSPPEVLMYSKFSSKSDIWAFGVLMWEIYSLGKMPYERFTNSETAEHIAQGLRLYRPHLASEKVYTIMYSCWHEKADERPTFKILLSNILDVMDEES

Row | IC50 | Compound
1 | < 1 µM | CC#CC(=O)Nc1cccc(-c2cnccc2Oc2ccc(Oc3ccccc3)cc2)c1 [A296, N-(3-(4-(4-phenoxyphenoxy)pyridin-3-yl)phenyl)but-2-ynamide]
2 | < 0.1 µM | CN(C)C/C=C/C(=O)N[C@H]1C[C@@H](Nc2ncnc(N)c2-c2ccc(Oc3ccccc3)cc2)C1 [A224, (E)-N-(1,3-cis-3-((6-amino-5-(4-phenoxyphenyl)pyrimidin-4-yl)amino)cyclobutyl)-4-(dimethylamino)but-2-enamide]
3 | > 1 µM | Nc1cccc(-c2cnccc2Oc2ccc(Oc3ccccc3)cc2)c1 [A312, 3-(4-(4-phenoxyphenoxy)pyridin-3-yl)aniline]
4 | > 1 µM | C=CC(=O)N1CCC(CNc2nc(N)ncc2-c2ccc(Oc3ccccc3)cc2)CC1 [A25, 1-(4-(((2-amino-5-(4-phenoxyphenyl)pyrimidin-4-yl)amino)methyl)piperidin-1-yl)prop-2-en-1-one]
5 | < 0.1 µM | C=CC(=O)Nc1cccc(Oc2ncnc(N)c2-c2cc(F)c(OCc3ccccc3)cc2F)c1 [A339, N-(3-((6-amino-5-(4-(benzyloxy)-2,5-difluorophenyl)pyrimidin-4-yl)oxy)phenyl)acrylamide]
6 | < 0.1 µM | C=CC(=O)Nc1cccc(-c2cnccc2Nc2ccc(Oc3ccccc3)cc2)c1 [A267, N-(3-(4-((4-phenoxyphenyl)amino)pyridin-3-yl)phenyl)acrylamide]
7 | < 1 µM | C=CC(=O)Nc1cccc(Oc2ncnc(N)c2-c2cnn(Cc3ccc(C#N)cc3)c2)c1 [A69, N-(3-((6-amino-5-(1-(4-cyanobenzyl)-1H-pyrazol-4-yl)pyrimidin-4-yl)oxy)phenyl)acrylamide]
8 | > 1 µM | C=CC(=O)Nc1cccc(-c2c(N)ncnc2N[C@H](C)c2ccccc2)c1 [A311, (R)-N-(3-(4-amino-6-((1-phenylethyl)amino)pyrimidin-5-yl)phenyl)acrylamide]
9 | < 0.1 µM | C=CC(=O)Nc1cccc(Oc2ncnc(N)c2-c2ccc(OCc3ccccc3)c(F)c2F)c1 [A257, N-(3-((6-amino-5-(4-(benzyloxy)-2,3-difluorophenyl)pyrimidin-4-yl)oxy)phenyl)acrylamide]
10 | > 1 µM | C=CC(=O)N1CCC(CCNc2ncnc(N)c2-c2ccc(Oc3ccccc3)cc2)CC1 [A16, 1-(4-(2-((6-amino-5-(4-phenoxyphenyl)pyrimidin-4-yl)amino)ethyl)piperidin-1-yl)prop-2-en-1-one]
11 | < 0.1 µM | C=CC(=O)N1CCC(CNc2ncnc(N)c2-c2ccc(Oc3ccccc3)c(F)c2F)CC1 [A88, 1-(4-(((6-amino-5-(2,3-difluoro-4-phenoxyphenyl)pyrimidin-4-yl)amino)methyl)piperidin-1-yl)prop-2-en-1-one]
12 | < 0.1 µM | C=CC(=O)Nc1ccc(F)c(Oc2ccnc(N)c2-c2ccc(Oc3ccccc3)cc2)c1 [A158, N-(3-((2-amino-3-(4-phenoxyphenyl)pyridin-4-yl)oxy)-4-fluorophenyl)acrylamide]
13 | < 0.1 µM | C=CC(=O)Nc1cccc(Oc2ncnc(N)c2-c2cnn(Cc3cccc(N(C)C)c3)c2)c1 [A212, N-(3-((6-amino-5-(1-(3-(dimethylamino)benzyl)-1H-pyrazol-4-yl)pyrimidin-4-yl)oxy)phenyl)acrylamide]
14 | < 1 µM | C=CC(=O)N1CCC(CNc2ncnc(N)c2-c2ccc(OCc3ccccc3)cc2)CC1 [A292, 1-(4-(((6-amino-5-(4-(benzyloxy)phenyl)pyrimidin-4-yl)amino)methyl)piperidin-1-yl)prop-2-en-1-one]
15 | < 1 µM | C=CC(=O)N1CCC[C@@H](Nc2ncnc(N)c2-c2cnn(Cc3ccccc3)c2)C1 [A180, (R)-1-(3-((6-amino-5-(1-benzyl-1H-pyrazol-4-yl)pyrimidin-4-yl)amino)piperidin-1-yl)prop-2-en-1-one]
16 | < 0.1 µM | CC=CC(=O)[C@H]1CCC[C@@H](Nc2ncnc(N)c2-c2ccc(Oc3ccccc3)cc2)C1 [A146, 1-((1S,3R)-3-(6-Amino-5-(4-phenoxyphenyl)-pyrimidin-4-ylamino)-cyclohexyl)-but-2-en-1-one]
